From BindingDB's records for doi:10.1111/j.1476-5381.1993.tb13617.x (Glaxo Group Research, 1993)
Where “and” joins values, the source holds several entries; their conditions need not be identical. Identical values can stand only once. Counter-ions that a name gives are not always drawn.

biological target: 5-hydroxytryptamine receptor 4 (Cavia porcellus, UniProt O70528)
Sequence (O70528 whole entry): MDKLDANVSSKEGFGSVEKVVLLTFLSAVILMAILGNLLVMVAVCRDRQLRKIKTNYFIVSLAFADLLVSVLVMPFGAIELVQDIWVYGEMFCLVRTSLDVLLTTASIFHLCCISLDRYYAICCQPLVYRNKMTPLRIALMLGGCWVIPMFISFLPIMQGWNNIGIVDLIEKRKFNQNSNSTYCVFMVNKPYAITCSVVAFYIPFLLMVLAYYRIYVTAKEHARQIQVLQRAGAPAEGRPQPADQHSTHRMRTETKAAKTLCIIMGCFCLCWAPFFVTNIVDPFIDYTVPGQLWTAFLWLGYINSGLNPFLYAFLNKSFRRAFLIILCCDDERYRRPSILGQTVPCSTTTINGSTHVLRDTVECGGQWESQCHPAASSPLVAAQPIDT

Question: CN1C2CCC1CC(OC(=O)c1c[nH]c3ccccc13)C2 (configuration not stated) was tested. Which Ki did it give?
Answer: The Ki was 63.1 nM.

Question: How did the Ki turn out when CCN(CC)CCNC(=O)c1cc(Cl)c(N)cc1OC [4-amino-5-chloro-N-[2-(diethylamino)ethyl]-2-methoxy-benzamide;hydrochloride] was run?
Answer: The Ki was 631 nM and 501 nM.

Question: How did the Ki turn out when Cn1cc(CCN)c2cc(O)ccc21 [5-HT,omega-N-Me] was run?
Answer: The Ki was 1580 nM.

Question: For CCn1c(=O)n(C(=O)NC2CC3CCC(C2)N3C)c2ccccc21 (configuration not stated) [BIMU 1], which Ki is on record?
Answer: The Ki was 15.8 nM.

Question: Which Ki does the source give for CC(C)n1c(=O)n(C(=O)NC2C[C@H]3CC[C@@H](C2)N3C)c2ccccc21 (some centres not stated) [BIMU 8] here?
Answer: Its Ki is 25.1 nM and 12.6 nM.

Question: How did the Ki turn out when Cn1cc(C(=O)OCC2CCN(CCNS(C)(=O)=O)CC2)c2ccccc21 [GR 113808] was run?
Answer: Its Ki is 0.25 nM and 0.31 nM.

Question: With COc1cc(N)c(Cl)cc1C(=O)NC1CCN2CCCC1C2 (configuration not stated) [NSC_3035240] as the compound, how does the Ki read?
Answer: Its Ki is 126 nM and 100 nM.

Question: For CCN(CC)CCOC(=O)c1cc(Cl)c(N)cc1OC [SDZ-205557], which Ki is on record?
Answer: Its Ki is 7.94 nM and 6.3 nM.

Question: Which Ki does the source give for COc1cc(N)c(Cl)cc1C(=O)NC1CN2CCC1CC2 (configuration not stated) [ZACOPRIDE,R] here?
Answer: Its Ki is 200 nM and 158 nM and 251 nM.

Question: Which Ki does the source give for COc1cc(N)c(Cl)cc1C(=O)N[C@@H]1CN2CCC1CC2 [ZACOPRIDE,R] here?
Answer: The Ki was 1000 nM and 501 nM.

Question: Which Ki does the source give for NCCc1c[nH]c2ccc(C(N)=O)cc12 [[3H]-5-carboxamidotryptamine] here?
Answer: Its Ki is 6310 nM.

Question: Which Ki does the source give for COc1ccc2[nH]cc(CCN)c2c1 [tryptamine, 5-Methoxy] here?
Answer: The Ki was 631 nM and 316 nM.
